Target: Thermotoga maritima mPPase (TmPPase) (Thermotoga maritima, UniProt Q9S5X0)
Experiment: TmPPase inhibition assay (96-well plate, orthophosphate determination)
Assay type: biochemical
Settings: for LE (ligand efficiency): computed using the pIC50 and the Heavy Atom Count (LEHA) normalization method, Discovery Studio; for biological activity (in words): TmPPase; for IC50 [CI95%] / IC50: purified TmPPase; for fold loss in activity compared to the carboxylic acids: 2-bromophenyl carboxylates 25 and 26 versus 5 and 23; call rule not given here
Description: The inhibition assay was measured in 96 well plate assay as previously reported.5,6 Briefly, 1 µL of purified TmPPase (13 mg/mL) was reactivated in 99 µL of reactivation buffer (20 mM 2-(N-morpholino) ethanesulfonic acid (MES) pH 6.5, 3.5% (v/v) glycerol, 2 mM dithiothreitol (DTT), 4.5% dodecyl maltoside (DDM) and 12 mg/mL L-α-phosphatidylcholine from soybean) and incubated at 55 °C for 15 min. For the assay, to each tube strips, 0.2 µL of the reactivated enzyme was added to 14.8 µL of reaction buffer (200 mM Tris-Cl pH 8.0, 8.0 mM MgCl2, 333 mM KCl, and 67 mM NaCl) and 25 µL of inhibitor. The reaction mixtures were sealed with an adhesive sealing sheet (Thermo Scientific) and incubated at 71 °C for 5 min. The reactions were started with the addition of 10 µL of 2 mM sodium pyrophosphate, further incubation at 71 °C for 5 min and stopped by placing the reaction mixtures on ice for 10 min. The color development was done with the addition of ammonium heptamolybdate + ascorbic acid solution on ice for 10 min and then 90 µL of arsenic solution, at room temperature, for a minimum of 30 min. 180 µL of each reaction mixtures was then transferred into a clear 96 well polystyrene microplate and the absorbance was measured at 860 nm using a microplate spectrophotometer (MultiSkan Go, Thermo Scientific). The pilot inhibitor screening of 16 phosphate-mimicking fragments was done at 100 μM inhibitor concentration. Further screening was done with three different concentrations; 1 μM, 5 μM and 50 μM for soluble compounds, and 1 μM, 5 μM, and 20 μM for sparingly soluble compounds.6 The best hits were validated using 8 concentrations in triplicate in TmPPase.
The potent hits 12k and 12l compounds were then tested on the P. falciparum (PfPPase-VP1) membrane fractions expressed in baculovirus-infected insect cells (the expression method and further enzyme analysis will be described in more detail elsewhere). Briefly, to each tube strips, 2.4 µL of PfPPase-VP1 membrane fraction (5 mg/mL) was added into 12.6 µL of reaction buffer (200 mM Tris-Cl pH 8.0, 8.0 mM MgCl2, 333 mM KCl, 67 mM NaCl, 3.3 mM NaF, and 17 μM Gramicidin D) and 25 µL of inhibitor. The reaction mixtures were incubated at 30 °C for 5 min and the assay was started by the addition of 10 µL of 2 mM sodium pyrophosphate and further incubation at 30 °C for 10 min. The reaction termination and color development were done as before.
The in vitro anti-plasmodial activity assay strain 3D7 was maintained in culture as described previously.7 Briefly, parasites were cultured in O+ human erythrocytes at 5% haematocrit in RPMI - 1640 medium supplemented with 0.5% Albumax II (Gibco, Carlsbad, CA, USA), 200 μM hypoxanthine (Sigma, St. Louis, MO, USA) and 20 μg/mL gentamycin (Gibco). Parasites were synchronized with the sorbitol method as described. 8 Test compound was dissolved in DMSO to make a stock solution of 10 mM. Two -fold serial dilutions of the test compound were made in the culture medium to cover the range of 400 µM – 400 nM. Fifty microliters of each dilution were mixed in 96 well plate with 150 µL of 2% haematocrit of 0.5% parasitemia (ring stage). DMSO concentration in the highest compound concentration w as 0.1%. After 72 h incubation at 37 °C, the parasite growth was quantified using fluorescent SYBR Green I ® -based assay as described. 9 The half-maximal inhibitory concentration (IC 50) of the test compound was assessed using the non-linear regression fit model in Prism 7 (GraphPad Software). The potent anti-malarial drug, artemisinin, was use in parallel as a positive control. Each concentration of the test compound was tested in duplicate and the assay was repeated three times. The mean and standard deviation of the three repeats were used to estimate the IC50.
IC50 determinations were done using R 3.6.110 and the n-parameter logistic regression (nplr) package11 version 0.1-7. In this package, the weighted nplr, given x (compound concentrations) and […]

[1] = 95% confidence interval in square brackets
[2] = IC50 [CI95%] (µM), unrounded values of the molecular formula strings file
[3] = IC50 [CI95%], 95% confidence interval in square brackets

Thermotoga maritima mPPase (TmPPase), sequence (Q9S5X0 whole entry): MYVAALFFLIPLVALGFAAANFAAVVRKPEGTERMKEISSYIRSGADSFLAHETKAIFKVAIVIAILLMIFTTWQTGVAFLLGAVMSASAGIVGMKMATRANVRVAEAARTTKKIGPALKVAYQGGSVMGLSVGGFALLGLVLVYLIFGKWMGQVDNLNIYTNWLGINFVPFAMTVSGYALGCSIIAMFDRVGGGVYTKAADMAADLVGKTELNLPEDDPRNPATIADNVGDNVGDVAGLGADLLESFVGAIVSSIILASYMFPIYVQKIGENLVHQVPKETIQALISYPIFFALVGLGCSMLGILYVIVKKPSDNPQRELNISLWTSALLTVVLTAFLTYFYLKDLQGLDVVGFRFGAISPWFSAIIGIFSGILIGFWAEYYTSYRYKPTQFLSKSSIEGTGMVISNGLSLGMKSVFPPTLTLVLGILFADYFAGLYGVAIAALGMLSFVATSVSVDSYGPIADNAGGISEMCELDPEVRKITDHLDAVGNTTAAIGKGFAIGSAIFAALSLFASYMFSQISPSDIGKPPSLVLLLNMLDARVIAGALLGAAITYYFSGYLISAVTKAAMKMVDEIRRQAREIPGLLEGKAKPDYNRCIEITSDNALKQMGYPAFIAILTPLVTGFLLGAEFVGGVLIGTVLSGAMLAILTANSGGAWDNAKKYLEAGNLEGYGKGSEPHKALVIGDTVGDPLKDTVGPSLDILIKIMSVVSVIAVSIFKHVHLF

O=c1[nH]c2ccc(S(=O)(=O)CCO)cc2o1 [Compound 2]
LE (ligand efficiency): 0.27

Cc1c(-c2cc(C(=O)O)no2)cnn1C [Compound 6]
biological activity (in words): lacked biological activity | IC50 [CI95%] [1]: Inactive

CCOC(=O)c1cc(-c2ccccc2)on1 [Compound 10a]
IC50 [CI95%] [1]: Inactive

CCOC(=O)c1cc(-c2ccccc2C(=O)OC)on1 [Compound 10b]
IC50 [CI95%] [1]: Inactive

CCOC(=O)c1cc(-c2cccc(C(=O)OC)c2)on1 [Compound 10c]
IC50 [CI95%] [1]: Inactive

CCOC(=O)c1cc(-c2ccc(C(=O)OC)cc2)on1 [Compound 10d]
IC50 [CI95%] [1]: Inactive

CCOC(=O)c1cc(-c2ccccc2OC)on1 [Compound 10e]
IC50 [CI95%] [1]: Inactive

CCOC(=O)c1cc(-c2cccc(OC)c2)on1 [Compound 10f]
IC50 [CI95%] [1]: Inactive

CCOC(=O)c1cc(-c2ccc(OC)cc2)on1 [Compound 10g]
IC50 [CI95%] [1]: Inactive

CCOC(=O)c1cc(-c2ccc([N+](=O)[O-])cc2)on1 [Compound 10h]
IC50 [CI95%] [1]: Inactive

CCOC(=O)c1cc(-c2cccc(C)c2)on1 [Compound 10i]
IC50 [CI95%] [1]: Inactive

CCOC(=O)c1cc(-c2cccc(C(C)(C)C)c2)on1 [Compound 10j]
IC50 [2]: 1210 µM | IC50 [CI95%] [1]: Slightly active

CCOC(=O)c1cc(-c2cccc(-c3cc(C(=O)OCC)no3)c2)on1 [Compound 10n]
biological activity (in words): neither the carboxylic acid 11n nor the ester 10n were notably active

O=C(O)c1cc(-c2ccccc2)on1 [Compound 11a]
biological activity (in words): inactive

O=C(O)c1cc(-c2ccc([N+](=O)[O-])cc2)on1 [Compound 11h]
biological activity (in words): did not lead to the desired activity

O=C(O)c1cc(-c2cc(C(F)(F)F)cc(C(F)(F)F)c2)on1 [Compound 11m]
biological activity (in words): did not lead to the desired activity

O=C(O)c1cc(-c2cccc(-c3cc(C(=O)O)no3)c2)on1 [Compound 11n]
biological activity (in words): neither the carboxylic acid 11n nor the ester 10n were notably active

O=C(Oc1ccccc1Br)c1cc(-c2ccc([N+](=O)[O-])cc2)on1 [Compound 12h]
IC50 [2]: 19.6 µM | IC50 [3]: 20 µM | LE (ligand efficiency): 0.19

Cc1cccc(-c2cc(C(=O)Oc3ccccc3Br)no2)c1 [Compound 12i]
LE (ligand efficiency): 0.23

CC(C)(C)c1cccc(-c2cc(C(=O)Oc3ccccc3Br)no2)c1 [Compound 12j]
LE (ligand efficiency): 0.20

CC(C)(C)c1cc(C(=O)Nc2nccs2)cc(C(C)(C)C)c1 [Compound 13]
LE (ligand efficiency): 0.20

CC(C)(C)c1cc(C(=O)Nc2ccc(S(N)(=O)=O)cc2)cc(C(C)(C)C)c1 [Compound 14]
LE (ligand efficiency): 0.16

CC(C)(C)c1cc(C(=O)Nc2ccccc2Br)cc(C(C)(C)C)c1 [Compound 15]
LE (ligand efficiency): 0.18

CC(C)(C)c1cc(C(=O)NCC(=O)O)cc(C(C)(C)C)c1 [Compound 19]
IC50 [CI95%] [1]: Inactive

CC(C)(C)c1cc(CCC(=O)O)cc(C(C)(C)C)c1 [Compound 20]
IC50 [CI95%] [1]: Inactive

O=C(O)c1cc(-c2ccc([N+](=O)[O-])cc2)[nH]n1 [Compound 22]
IC50 [CI95%] [1]: Inactive

O=C(O)c1cnc(-c2ccccc2)s1 [Compound 23]
LE (ligand efficiency): 0.32

Cc1nc(-c2cc(C(=O)Oc3ccccc3Br)no2)cs1 [Compound 25]
fold loss in activity compared to the carboxylic acids: 27 fold

O=C(Oc1ccccc1Br)c1cnc(-c2ccccc2)s1 [Compound 26]
fold loss in activity compared to the carboxylic acids: 1.6 fold | LE (ligand efficiency): 0.20

Cc1cc(C)cc(-c2cc(C(=O)Oc3ccccc3)no2)c1 [Compound 27]
LE (ligand efficiency): 0.20 | fold loss of inhibition on removing the bromine atom (versus 12k): 3.6 fold

Cc1cc(C)cc(-c2cc(C(=O)Nc3ccccc3Br)no2)c1 [Compound 28]
biological activity (in words): inactive

Nc1ccc(CO)c(B(O)O)c1 [SI-1]
IC50 [CI95%] [1]: Inactive

Nc1ccc(S(=O)(=O)NC2=NCCS2)cc1 [SI-2]
IC50 [CI95%] [1]: Inactive

O=C(O)c1ccc2c(c1)B(O)OC2 [SI-3]
IC50 [CI95%] [1]: Inactive

O=C(O)CS(=O)(=O)c1ccccc1[N+](=O)[O-] [SI-4]
IC50 [CI95%] [1]: Inactive

CC1(C)CS(=O)(=O)N(c2ccc(S(=O)(=O)Cl)cc2)C1=O [SI-5]
IC50 [CI95%] [1]: Inactive

O=C(O)c1ccc2c(c1)S(=O)(=O)NC2=O [SI-6]
IC50 [CI95%] [1]: Inactive

O=C1CS(=O)(=O)c2ccccc21 [SI-7]
IC50 [CI95%] [1]: Inactive

Nc1ccc(S(=O)(=O)NCC(=O)O)cc1 [SI-8]
IC50 [CI95%] [1]: Inactive

O=C(O)CN1C(=O)c2ccccc2S1(=O)=O [SI-9]
IC50 [CI95%] [1]: Inactive

CC(=O)Nc1ccc(S(=O)(=O)NC(CO)C(=O)O)cc1 (stereo not shown) [SI-10]
IC50 [CI95%] [1]: Inactive

Nc1nnnn1CC(=O)O [SI-11]
IC50 [CI95%] [1]: Inactive

CS(=O)(=O)Nc1ccc(C#N)cc1 [SI-12]
IC50 [CI95%] [1]: Inactive

CCOC(=O)c1cc(-c2csc(CS(C)(=O)=O)n2)on1 [SI-13]
IC50 [CI95%] [1]: Inactive

CCOC(=O)c1cc(-c2csc(CS(=O)(=O)c3ccccn3)n2)on1 [SI-14]
IC50 [CI95%] [1]: Inactive

CCOC(=O)c1cc(-c2csc(-c3cccc(Cl)c3)n2)on1 [SI-15]
IC50 [CI95%] [1]: Inactive

CCOC(=O)c1cc(-c2csc(Nc3ccccc3)n2)on1 [SI-16]
IC50 [CI95%] [1]: Inactive

CCOC(=O)c1cc(-c2ccc(OC)c(S(=O)(=O)Nc3cc(C)on3)c2)on1 [SI-17]
IC50 [2]: 240 µM | IC50 [3]: 240 µM

CCOC(=O)c1cc(-c2ccc(OC)c(S(=O)(=O)Nc3ncccc3C)c2)on1 [SI-18]
IC50 [CI95%] [1]: Inactive

CCOC(=O)c1cc(-c2ccc(OC)c(S(=O)(=O)NC3CCCc4ccccc43)c2)on1 (stereo not shown) [SI-19]
IC50 [2]: 29.1 µM | IC50 [3]: 29 µM | LE (ligand efficiency): 0.14

CCOC(=O)c1cc(-c2ccc(OC)c(S(=O)(=O)N3CCCc4ccccc43)c2)on1 [SI-20]
IC50 [CI95%] [1]: Inactive

CCOC(=O)c1cc(-c2ccc(OC)c(S(=O)(=O)N3CC(=O)Nc4ccccc43)c2)on1 [SI-21]
IC50 [CI95%] [1]: Inactive

CCOC(=O)c1cc(-c2ccc(OC)c(S(=O)(=O)N3CCOc4ccccc43)c2)on1 [SI-22]
IC50 [CI95%] [1]: Inactive

CCOC(=O)c1cc(-c2ccc(OC)c(S(=O)(=O)N3CCOCC3)c2)on1 [SI-23]
IC50 [CI95%] [1]: Inactive

COc1ccc(-c2cc(C(=O)O)no2)cc1S(=O)(=O)N1CCOCC1 [SI-24]
IC50 [CI95%] [1]: Inactive
